Reference: US4355038A, “α-Substituted ureido-benzylpenicillanic acids” (Chugai Seiyaku Kabushiki Kaisha, priority 1980, dated 1982)
Converted amounts (≈) assume the structure as drawn.

Legend:
Shigella flexneri 2b = test: MIC, agar plate doubling dilution method; assay type: cell-based; settings: HI agar, 37° C., 20 hours, read-out: minimum inhibitory concentration (MIC)
Method: (§1) Invitro antibacterial activity was measured by the agar plate doubling dilution method described below. A test culture incubated overnight in a heart infusion broth was diluted by 100 to 1000 fold and one […] of the culture was inoculated on heart infusion agars (HI agar) containing various concentrations of a specific compound and the inoculates were incubated at 37° C. for 20 hours.

[1] = test system: Staphylococcus aureus 209P; test: MIC, agar plate doubling dilution method; assay type: cell-based; settings: HI agar, 37° C., 20 hours, read-out: minimum inhibitory concentration (MIC)
Method: as §1

[2] = test system: Pseudomonas aeruginosa J-272; test: MIC, agar plate doubling dilution method; assay type: cell-based; settings: J272, HI agar, 37° C., 20 hours, read-out: minimum inhibitory concentration (MIC)
Method: as §1

Salmonella paratyphi A = test: MIC, agar plate doubling dilution method; assay type: cell-based; settings: Salmonella enterica, 20 h, read-out: minimum inhibitory concentration (MIC)
Method: as §1

[3] = test system: Pseudomonas aeruginosa J-169-CM-222; test: MIC, agar plate doubling dilution method; assay type: cell-based; settings: J169CM222, HI agar, 37° C., 20 hours, read-out: minimum inhibitory concentration (MIC)
Method: as §1

Escherichia coli NIHJ = test: MIC, agar plate doubling dilution method; assay type: cell-based; settings: HI agar, 37° C., 20 hours, read-out: minimum inhibitory concentration (MIC)
Method: as §1

[4] = test system: Klebsiella pneumoniae 15c; test: MIC, agar plate doubling dilution method; assay type: cell-based; settings: HI agar, 37° C., 20 hours, read-out: minimum inhibitory concentration (MIC)
Method: as §1

[5] = test system: Pseudomonas aeruginosa J-169; test: MIC, agar plate doubling dilution method; assay type: cell-based; settings: J169, HI agar, 37° C., 20 hours, read-out: minimum inhibitory concentration (MIC)
Method: as §1

[6] = test system: Bacillus subtilis POI-219; test: MIC, agar plate doubling dilution method; assay type: cell-based; settings: POI219, HI agar, 37° C., 20 hours, read-out: minimum inhibitory concentration (MIC)
Method: as §1

Proteus mirabilis 9' = test: MIC, agar plate doubling dilution method; assay type: cell-based; settings: HI agar, 37° C., 20 hours, read-out: minimum inhibitory concentration (MIC)
Method: as §1

[7] = test system: Pseudomonas aeruginosa J-272; test: ED50 in mice infected intraperitoneally with Pseudomonas aeruginosa; assay type: in vivo, ddY male mice; settings: subcutaneous 1 h and 3 h after inoculation, 1 × 10^4 cells inoculated i.p. in 5% mucin, survival five days after injection
Method: Five-week-old ddY male mice (five constituting one group) weighing 21 to 25 g on average were administered intraperitoneally with 5% mucin suspensions of test microorganisms that were incubated in brain heart infusion agar plates overnight at 37° C.
One hour and three hours after the inoculation, the mice were injected subcutaneously with various concentrations of the test compounds. The ED50 of each test compound was determined from the number of the mice that were still alive five days after injection of the respective doses.

SMILES | MIC (Shigella flexneri 2b) [µg/mL] | MIC [1] [µg/mL] | MIC [2] [µg/mL] | MIC (Salmonella paratyphi A) [µg/mL] | MIC [3] [µg/mL] | MIC (Escherichia coli NIHJ) [µg/mL] | MIC [4] [µg/mL] | MIC [5] [µg/mL] | MIC [6] [µg/mL] | MIC (Proteus mirabilis 9') [µg/mL] | ED50 (SC) [7] [mg/head]
CC1(C)S[C@@H]2[C@H](NC(=O)[C@H](NC(=O)N(CCCO)C(=O)c3ccc(O)c(O)c3)c3ccccc3)C(=O)N2[C@H]1C(=O)O [compound (a), 6-[D(-)-α-{3-(3,4-dihydroxybenzoyl)-3-(3-hydroxypropyl)-1-ureido}-α-phenylacetamido]penicillanic acid] | ≤ 0.1 | 0.78 (≈ 1.33 µM) | 0.4 (≈ 0.682 µM) | ≤ 0.1 | 3.12 (≈ 5.32 µM) | 0.4 (≈ 0.682 µM) | 0.4 (≈ 0.682 µM) | 0.78 (≈ 1.33 µM) | 0.2 (≈ 0.341 µM) | 1.56 (≈ 2.66 µM) | 0.61
CCN1CCN(C(=O)N[C@@H](C(=O)N[C@@H]2C(=O)N3[C@@H]2SC(C)(C)[C@@H]3C(=O)O)c2ccccc2)C(=O)C1=O [piperacillin, 6-[D(-)-α-(4-ethyl-2,3-dioxo-1-piperazinylcarbonylamino)phenylacetamido]penicillanic acid, reference compound] | 0.78 (≈ 1.51 µM) | ≤ 0.2 | 12.5 (≈ 24.2 µM) | 0.4 (≈ 0.773 µM) | 25 (≈ 48.3 µM) | 0.2 (≈ 0.386 µM) | 3.12 (≈ 6.03 µM) | 12.5 (≈ 24.2 µM) | 0.2 (≈ 0.386 µM) | 0.78 (≈ 1.51 µM) | 10.0
CC1(C)S[C@@H]2[C@H](NC(=O)[C@H](NC(=O)N(CCO)C(=O)c3ccc(O)c(O)c3)c3ccccc3)C(=O)N2[C@H]1C(=O)O [compound (b), 6-[D(-)-α-{3-(3,4-dihydroxybenzoyl)-3-(2-hydroxyethyl)-1-ureido}-α-phenylacetamide]penicillanic acid] | ≤ 0.1 | 1.56 (≈ 2.72 µM) | 0.78 (≈ 1.36 µM) | ≤ 0.1 | 25 (≈ 43.7 µM) | 6.25 (≈ 10.9 µM) | 3.12 (≈ 5.45 µM) | 3.12 (≈ 5.45 µM) | 0.78 (≈ 1.36 µM) | 3.12 (≈ 5.45 µM) | 1.20
CC1(C)S[C@@H]2[C@H](NC(=O)[C@H](NC(=O)N(CCOCCO)C(=O)c3ccc(O)c(O)c3)c3ccccc3)C(=O)N2[C@H]1C(=O)O [compound (c), 6-[D(-)-α-[3-(3,4-dihydroxybenzoyl)-3-{2-(2-hydroxyethoxy)ethyl}-1-ureidol]-α-phenylacetamido]-penicillanic acid] | ≤ 0.1 | 0.4 (≈ 0.649 µM) | 0.2 (≈ 0.324 µM) | ≤ 0.1 | 1.56 (≈ 2.53 µM) | 0.4 (≈ 0.649 µM) | 0.4 (≈ 0.649 µM) | 0.78 (≈ 1.26 µM) | 0.1 (≈ 0.162 µM) | 1.56 (≈ 2.53 µM) | 1.48
CC1(C)S[C@@H]2[C@H](NC(=O)[C@H](NC(=O)N(CCCO)C(=O)c3ccc(O)c(O)c3)c3ccc(O)cc3)C(=O)N2[C@H]1C(=O)O [compound (f), 6-[D(-)-α-{3-(3,4-dihydroxybenzoyl)-3-(3-hydroxypropyl)-1-ureido}-α-(4-hydroxyphenyl)acetamido]penicillanic acid] | ≤ 0.1 | 0.78 (≈ 1.29 µM) | 0.2 (≈ 0.332 µM) | ≤ 0.1 | 3.12 (≈ 5.18 µM) | 0.78 (≈ 1.29 µM) | 0.4 (≈ 0.664 µM) | 0.78 (≈ 1.29 µM) | 0.4 (≈ 0.664 µM) | 1.56 (≈ 2.59 µM) | 1.18
CC(=O)OCCCN(C(=O)N[C@@H](C(=O)N[C@@H]1C(=O)N2[C@@H]1SC(C)(C)[C@@H]2C(=O)O)c1ccccc1)C(=O)c1ccc(O)c(O)c1 [compound (e), 6-[D(-)-α-{3-(3,4-dihydroxybenzoyl)-3-(3-acetoxypropyl)-1-ureido}-α-phenylacetamido]-penicillanic acid] | ≤ 0.1 | 1.56 (≈ 2.48 µM) | 0.4 (≈ 0.636 µM) | ≤ 0.1 | 6.25 (≈ 9.94 µM) | 0.78 (≈ 1.24 µM) | 0.4 (≈ 0.636 µM) | 3.12 (≈ 4.96 µM) | 0.4 (≈ 0.636 µM) | 0.78 (≈ 1.24 µM) | 1.71
CN(C(=O)N[C@@H](C(=O)N[C@@H]1C(=O)N2[C@@H]1SC(C)(C)[C@@H]2C(=O)O)c1ccccc1)C(=O)c1ccc(O)c(O)c1 [compound Z, 6-[D(-)-α-{3-(3,4-dihydroxybenzoyl)-3-methyl-1-ureido}-α-phenylacetamido]penicillanic acid, reference compound] | ≤ 0.1 | 0.4 (≈ 0.737 µM) | 0.1 (≈ 0.184 µM) | ≤ 0.1 | 0.4 (≈ 0.737 µM) | 0.2 (≈ 0.369 µM) | ≤ 0.1 | 0.2 (≈ 0.369 µM) | 0.1 (≈ 0.184 µM) | 0.78 (≈ 1.44 µM) | 2.30
COCCN(C(=O)N[C@@H](C(=O)N[C@@H]1C(=O)N2[C@@H]1SC(C)(C)[C@@H]2C(=O)O)c1ccccc1)C(=O)c1ccc(O)c(O)c1 [compound (d), 6-[D(-)-α-{3-(3,4-dihydroxybenzoyl)-3-(2-methyoxyethyl)-1-ureido}-α-phenylacetamide]-penicillanic acid] | ≤ 0.1 | 0.78 (≈ 1.33 µM) | 0.78 (≈ 1.33 µM) | ≤ 0.1 | 3.12 (≈ 5.32 µM) | 0.4 (≈ 0.682 µM) | 0.2 (≈ 0.341 µM) | 3.12 (≈ 5.32 µM) | 0.4 (≈ 0.682 µM) | 0.2 (≈ 0.341 µM) | 1.52
